# Several values for one entry are separate records, joined by “and”; a condition that tells them apart may be missing. Equal values may be shown once. ± gives the uncertainty stated by the source.
# Test: xn = mol fraction of the nth substance listed
structure (smiles),measurement,setting,value
NCCO + O,viscosity,"293.15 K, 100 kPa, x2 = 0.46",21.2 ± 0.4 mPa·s
same,viscosity,"293.15 K, 101 kPa, x1 = 0.03289",1.389 ± 0.012 mPa·s
same,viscosity,"293.15 K, 101 kPa, x1 = 0.06899",1.903 ± 0.016 mPa·s
same,viscosity,"293.15 K, 101 kPa, x1 = 0.069",1.88 ± 0.017 mPa·s
same,viscosity,"293.15 K, 101 kPa, x1 = 0.0699",1.953 ± 0.029 mPa·s
same,viscosity,"293.15 K, 101 kPa, x1 = 0.1124",3.125 ± 0.026 mPa·s
same,viscosity,"293.15 K, 101 kPa, x1 = 0.1654",4.243 ± 0.064 mPa·s
same,viscosity,"293.15 K, 101 kPa, x1 = 0.23",6.17 ± 0.076 mPa·s
same,viscosity,"293.15 K, 101 kPa, x1 = 0.3043",9.893 ± 0.13 mPa·s
same,viscosity,"293.15 K, 101 kPa, x1 = 0.47",16.6 ± 0.23 mPa·s
same,viscosity,"293.15 K, 101 kPa, x1 = 0.6204",23.11 ± 0.35 mPa·s
same,viscosity,"293.15 K, 101 kPa, x1 = 0.803",25.85 ± 0.47 mPa·s
same,viscosity,"293.15 K, 101 kPa, x2 = 0.84",4.64 ± 1.4 mPa·s
same,viscosity,"293.15 K, 101 kPa, x2 = 0.93",2.002 ± 0.6 mPa·s
same,viscosity,"293.15 K, 101.3 kPa, x1 = 0.07",2.005 ± 0.079 mPa·s
same,viscosity,"293.15 K, 101.3 kPa, x1 = 0.2",4.667 ± 0.19 mPa·s and 7.345 ± 0.32 mPa·s
same,viscosity,"293.15 K, 101.3 kPa, x1 = 0.3",11.29 ± 0.4 mPa·s
same,viscosity,"293.15 K, 101.3 kPa, x1 = 0.4",15.77 ± 0.56 mPa·s
same,viscosity,"293.15 K, 101.3 kPa, x1 = 0.5",21 ± 0.69 mPa·s
same,viscosity,"293.15 K, 101.3 kPa, x1 = 0.7",24.02 ± 0.75 mPa·s
same,viscosity,"298.14 K, 100 kPa, x1 = 0.112",2.464 ± 0.1 mPa·s
same,viscosity,"298.15 K, 100 kPa, x1 = 0.069",1.621 ± 0.057 mPa·s
same,viscosity,"298.15 K, 100 kPa, x1 = 0.11",2.415 ± 0.059 mPa·s
same,viscosity,"298.15 K, 100 kPa, x1 = 0.112",2.467 ± 0.1 mPa·s and 2.464 ± 0.26 mPa·s
same,viscosity,"298.15 K, 101 kPa, x1 = 0.03289",1.224 ± 0.01 mPa·s
same,viscosity,"298.15 K, 101 kPa, x1 = 0.06899",1.689 ± 0.014 mPa·s
same,viscosity,"298.15 K, 101 kPa, x1 = 0.1121",2.44 ± 0.73 mPa·s
same,viscosity,"298.15 K, 101 kPa, x1 = 0.1122",2.54 ± 0.06 mPa·s
same,viscosity,"298.15 K, 101 kPa, x1 = 0.1124",2.714 ± 0.023 mPa·s
same,viscosity,"298.15 K, 101 kPa, x1 = 0.1422",3.11 ± 0.94 mPa·s
same,viscosity,"298.15 K, 101 kPa, x2 = 0.84",3.41 ± 0.03 mPa·s and 3.76 ± 1.1 mPa·s
same,viscosity,"298.15 K, 101 kPa, x2 = 0.8878",2.52 ± 0.02 mPa·s
same,viscosity,"298.15 K, 101 kPa, x2 = 0.89",2.46 ± 0.74 mPa·s
same,viscosity,"298.15 K, 101.3 kPa, x1 = 0.03",1.299 ± 0.05 mPa·s
same,viscosity,"298.15 K, 101.3 kPa, x1 = 0.1",2.489 ± 0.082 mPa·s
same,viscosity,"298.15 K, 101.3 kPa, x1 = 0.2",3.765 ± 0.13 mPa·s and 5.547 ± 0.2 mPa·s
same,viscosity,"298.15 K, 101.3 kPa, x1 = 0.3",9.062 ± 0.32 mPa·s
same,viscosity,"298.15 K, 101.3 kPa, x1 = 0.4",12.6 ± 0.45 mPa·s
same,viscosity,"298.15 K, 101.3 kPa, x1 = 0.5",16.29 ± 0.61 mPa·s
same,viscosity,"298.15 K, 101.3 kPa, x1 = 0.7",19.9 ± 0.71 mPa·s
same,viscosity,"303.15 K, 100 kPa, x1 = 0.1",1.91 ± 0.03 mPa·s
same,viscosity,"303.15 K, 100 kPa, x1 = 0.2",3.87 ± 0.07 mPa·s
same,viscosity,"303.15 K, 100 kPa, x1 = 0.3",6.67 ± 0.12 mPa·s
same,viscosity,"303.15 K, 100 kPa, x1 = 0.4",9.68 ± 0.17 mPa·s
same,viscosity,"303.15 K, 100 kPa, x1 = 0.5",12.3 ± 0.2 mPa·s
same,viscosity,"303.15 K, 100 kPa, x1 = 0.6",14 ± 0.3 mPa·s
same,viscosity,"303.15 K, 100 kPa, x2 = 0.46",13.1 ± 0.2 mPa·s
same,viscosity,"303.15 K, 101 kPa, x1 = 0.03289",1.087 ± 0.009 mPa·s
same,viscosity,"303.15 K, 101 kPa, x1 = 0.06899",1.482 ± 0.012 mPa·s
same,viscosity,"303.15 K, 101 kPa, x1 = 0.0699",1.477 ± 0.02 mPa·s and 1.177 ± 0.016 mPa·s
same,viscosity,"303.15 K, 101 kPa, x1 = 0.1122",2.19 ± 0.05 mPa·s
same,viscosity,"303.15 K, 101 kPa, x1 = 0.1124",2.397 ± 0.02 mPa·s
same,viscosity,"303.15 K, 101 kPa, x1 = 0.1422",2.65 ± 0.8 mPa·s
same,viscosity,"303.15 K, 101 kPa, x1 = 0.1654",3.059 ± 0.043 mPa·s
same,viscosity,"303.15 K, 101 kPa, x1 = 0.3043",6.608 ± 0.095 mPa·s
same,viscosity,"303.15 K, 101 kPa, x1 = 0.6204",13.65 ± 0.21 mPa·s
same,viscosity,"303.15 K, 101 kPa, x1 = 0.803",15.72 ± 0.31 mPa·s
same,viscosity,"303.15 K, 101 kPa, x2 = 0.84",3.27 ± 0.98 mPa·s
same,viscosity,"303.15 K, 101 kPa, x2 = 0.93",1.496 ± 0.45 mPa·s
same,viscosity,"303.15 K, 101.3 kPa, x1 = 0.03",1.121 ± 0.046 mPa·s
same,viscosity,"303.15 K, 101.3 kPa, x1 = 0.07",1.501 ± 0.054 mPa·s
same,viscosity,"303.15 K, 101.3 kPa, x1 = 0.1",2.195 ± 0.071 mPa·s
same,viscosity,"303.15 K, 101.3 kPa, x1 = 0.2",3.279 ± 0.1 mPa·s and 4.96 ± 0.15 mPa·s
same,viscosity,"303.15 K, 101.3 kPa, x1 = 0.3",7.417 ± 0.23 mPa·s
same,viscosity,"303.15 K, 101.3 kPa, x1 = 0.4",10.31 ± 0.33 mPa·s
same,viscosity,"303.15 K, 101.3 kPa, x1 = 0.5",13.15 ± 0.42 mPa·s
same,viscosity,"308.15 K, 101 kPa, x1 = 0.03289",0.973 ± 0.008 mPa·s
same,viscosity,"308.15 K, 101 kPa, x1 = 0.06899",1.31 ± 0.011 mPa·s
same,viscosity,"308.15 K, 101 kPa, x1 = 0.1124",2.143 ± 0.018 mPa·s
same,viscosity,"313 K, 101 kPa, x1 = 0.11",1.57 ± 0.02 mPa·s
same,viscosity,"313.15 K, 100 kPa, x1 = 0.1",1.48 ± 0.03 mPa·s
same,viscosity,"313.15 K, 100 kPa, x2 = 0.46",8.59 ± 0.14 mPa·s
same,viscosity,"313.15 K, 101 kPa, x1 = 0.03289",0.878 ± 0.007 mPa·s
same,viscosity,"313.15 K, 101 kPa, x1 = 0.11",1.66 ± 0.07 mPa·s
same,viscosity,"313.15 K, 101 kPa, x1 = 0.1124",1.95 ± 0.017 mPa·s
same,viscosity,"313.15 K, 101 kPa, x1 = 0.1422",1.99 ± 0.6 mPa·s
same,viscosity,"313.15 K, 101 kPa, x1 = 0.3043",4.654 ± 0.066 mPa·s
same,viscosity,"313.15 K, 101 kPa, x1 = 0.803",10.54 ± 0.15 mPa·s
same,viscosity,"313.15 K, 101 kPa, x2 = 0.84",2.3 ± 0.69 mPa·s
same,viscosity,"313.15 K, 101 kPa, x2 = 0.93",1.163 ± 0.35 mPa·s
same,viscosity,"313.15 K, 101.3 kPa, x1 = 0.03",0.909 ± 0.042 mPa·s
same,viscosity,"313.15 K, 101.3 kPa, x1 = 0.2",3.423 ± 0.11 mPa·s
same,viscosity,"313.15 K, 101.3 kPa, x1 = 0.3",5.291 ± 0.17 mPa·s
same,viscosity,"313.15 K, 101.3 kPa, x1 = 0.4",7.024 ± 0.23 mPa·s
same,viscosity,"313.15 K, 101.3 kPa, x1 = 0.5",8.95 ± 0.3 mPa·s
same,viscosity,"318.15 K, 101 kPa, x1 = 0.03289",0.798 ± 0.007 mPa·s
same,viscosity,"318.15 K, 101 kPa, x1 = 0.06899",1.048 ± 0.009 mPa·s
same,viscosity,"323 K, 101 kPa, x1 = 0.11",1.22 ± 0.02 mPa·s
same,viscosity,"323.15 K, 100 kPa, x2 = 0.46",5.92 ± 0.1 mPa·s
same,viscosity,"323.15 K, 101 kPa, x1 = 0.03289",0.731 ± 0.006 mPa·s
same,viscosity,"323.15 K, 101 kPa, x1 = 0.06899",0.948 ± 0.008 mPa·s
same,viscosity,"323.15 K, 101 kPa, x1 = 0.069",0.94 ± 0.009 mPa·s
same,viscosity,"323.15 K, 101 kPa, x1 = 0.0699",0.973 ± 0.013 mPa·s
same,viscosity,"323.15 K, 101 kPa, x1 = 0.1654",1.76 ± 0.023 mPa·s
same,viscosity,"323.15 K, 101 kPa, x1 = 0.23",2.57 ± 0.032 mPa·s
same,viscosity,"323.15 K, 101 kPa, x1 = 0.3043",3.401 ± 0.05 mPa·s
same,viscosity,"323.15 K, 101 kPa, x1 = 0.47",5.37 ± 0.09 mPa·s
same,viscosity,"323.15 K, 101 kPa, x1 = 0.6204",6.592 ± 0.1 mPa·s
same,viscosity,"323.15 K, 101 kPa, x1 = 0.803",7.219 ± 0.11 mPa·s
same,viscosity,"323.15 K, 101 kPa, x2 = 0.84",1.78 ± 0.53 mPa·s
same,viscosity,"323.15 K, 101 kPa, x2 = 0.89",1.23 ± 0.37 mPa·s
same,viscosity,"323.15 K, 101 kPa, x2 = 0.93",0.942 ± 0.28 mPa·s
same,viscosity,"323.15 K, 101.3 kPa, x1 = 0.03",0.715 ± 0.038 mPa·s
same,viscosity,"323.15 K, 101.3 kPa, x1 = 0.07",0.945 ± 0.042 mPa·s
same,viscosity,"323.15 K, 101.3 kPa, x1 = 0.1",1.338 ± 0.05 mPa·s
same,viscosity,"323.15 K, 101.3 kPa, x1 = 0.2",1.782 ± 0.06 mPa·s and 2.566 ± 0.08 mPa·s
same,viscosity,"323.15 K, 101.3 kPa, x1 = 0.3",3.771 ± 0.12 mPa·s
same,viscosity,"323.15 K, 101.3 kPa, x1 = 0.4",5.055 ± 0.16 mPa·s
same,viscosity,"323.15 K, 101.3 kPa, x1 = 0.5",6.273 ± 0.2 mPa·s
same,viscosity,"323.15 K, 101.3 kPa, x1 = 0.7",7.09 ± 0.23 mPa·s
